Assay results taken from US5523303A, “Trisubstituted cycloalkane derivatives and process for the preparation thereof” (Egis Gyogyszergyar Rt., priority 1993, dated 1996).
Like-named read-outs stand apart in the source and are kept apart here.

Assays:
beta-adrenergic = conditions: prior art; cited from earlier work
[1] = Acute toxicity on mice (method of Lichtfield and Wilcoxon), LD50; conditions: mouse, in vivo, po, 14 days observation
Protocol: The test was carried out according to the method of Lichtfield and Wilcoxon [Lichtfield, J. T. and Wilcoxon, F. W.: J. Pharmacol. Exp. Ther., 96, 99 (1949)] by using white mice belonging to the CFLP strain and weighing 10 to 22 g, 10 animals per dose. The test compounds were administered orally in a volume of 20 cm3 /kg.

H^+ K^+ -ATP-ase = target: T1, H^+ K^+ -ATP-ase (Sus scrofa, UniProt P19156); assay: H+/K+-ATP-ase inhibition on partially purified pig's microsome specimen (method of Rabon and Sachs); assay type: biochemical
T1 construct: on partially purified pig's microsome specimen; from tissue; host or cells: pig stomach, partially purified microsomes
T1 sequence (P19156 2-1034 limits assumed): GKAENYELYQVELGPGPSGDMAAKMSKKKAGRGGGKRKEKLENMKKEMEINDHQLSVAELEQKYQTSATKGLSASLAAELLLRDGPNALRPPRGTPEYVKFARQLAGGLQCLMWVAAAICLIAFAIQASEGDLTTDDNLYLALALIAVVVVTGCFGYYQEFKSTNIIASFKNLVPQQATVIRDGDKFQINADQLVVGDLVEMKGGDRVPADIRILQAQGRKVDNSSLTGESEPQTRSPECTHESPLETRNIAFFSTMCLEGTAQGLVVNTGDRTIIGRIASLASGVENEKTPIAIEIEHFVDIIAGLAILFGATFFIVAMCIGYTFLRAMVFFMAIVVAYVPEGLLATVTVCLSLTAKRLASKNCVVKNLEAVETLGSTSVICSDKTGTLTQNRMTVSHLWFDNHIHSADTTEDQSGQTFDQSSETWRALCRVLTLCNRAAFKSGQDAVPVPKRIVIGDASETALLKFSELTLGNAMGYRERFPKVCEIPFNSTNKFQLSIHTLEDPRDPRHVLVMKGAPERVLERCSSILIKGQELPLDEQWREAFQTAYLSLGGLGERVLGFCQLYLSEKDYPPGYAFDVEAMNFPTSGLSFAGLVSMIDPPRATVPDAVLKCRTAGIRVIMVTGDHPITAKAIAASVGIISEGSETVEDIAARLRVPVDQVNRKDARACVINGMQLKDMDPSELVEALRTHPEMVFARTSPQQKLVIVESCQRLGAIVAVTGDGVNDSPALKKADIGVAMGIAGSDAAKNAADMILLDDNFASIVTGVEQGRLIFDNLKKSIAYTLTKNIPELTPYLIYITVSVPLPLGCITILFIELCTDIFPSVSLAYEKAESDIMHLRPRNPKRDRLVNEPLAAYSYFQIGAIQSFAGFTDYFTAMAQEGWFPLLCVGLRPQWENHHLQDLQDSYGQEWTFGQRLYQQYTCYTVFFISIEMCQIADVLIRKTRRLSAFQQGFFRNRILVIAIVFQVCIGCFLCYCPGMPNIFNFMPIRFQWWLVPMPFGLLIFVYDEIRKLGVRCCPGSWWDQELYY
T1 sequence (P18434 whole entry partner): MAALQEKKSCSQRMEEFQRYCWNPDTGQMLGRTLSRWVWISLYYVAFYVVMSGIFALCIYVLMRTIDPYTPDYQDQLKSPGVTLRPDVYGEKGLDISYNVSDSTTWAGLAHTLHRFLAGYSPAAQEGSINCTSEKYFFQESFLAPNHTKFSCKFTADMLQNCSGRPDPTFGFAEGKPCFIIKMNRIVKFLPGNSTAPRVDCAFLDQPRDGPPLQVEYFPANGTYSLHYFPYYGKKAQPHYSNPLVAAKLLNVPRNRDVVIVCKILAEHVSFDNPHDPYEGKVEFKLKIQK
Protocol: 1. H^+ /K^+ -ATP-ase inhibition on pig'stomach. The test was carried out according to the method of Rabon and Sachs [E. C. Rabon, W. B. I. and G. Sachs: Preparation of gastric H^+ /K^+ -ATP-ase. Methods in Enzymology, 157, 649-651 (1988)]. The activity of the prepared enzyme was measured both in the presence and in the absence of K^+ ions. The difference in the liberation of phosphorus representing the activity of the enzyme was measured.

[2] = Acute toxicity on mice (method of Lichtfield and Wilcoxon), LD50; conditions: mouse, in vivo, ip, 14 days observation
gastric-acid-secretion = assay: Gastric-acid-secretion inhibition on rats (method of Shay et al.); assay type: in vivo; conditions: Rattus norvegicus, po, read-out: Acid-secretion inhibition, ED50
Protocol: 2. […] The liberated gastric acid content was determined by titration 4 hours after the ligature of the duodenum.

[3] = tested on: erosion of the stomach wall; assay: Cytoprotective effect: inhibition of ethanol-induced erosion of the stomach wall on rats (method of Robert); assay type: in vivo; conditions: for ED50: Rattus norvegicus, po; for Ratio of acid-secretion inhibition and erosion inhibition: ratio of the ED50 values
Protocol: 3. The cytoprotective effect was determined on rats according to the method of Robert [Robert, A.: Cytoprotection by prostaglandins. […] Rats weighing 200 to 250 g were used as test animals. 1 cm^3 of abs. ethanol was introduced to the stomach to produce an erosion of the stomach wall. The length and frequency of the lesions (erosion index and frequency) were measured and the percentage inhibition of lesion formation compared with vehicle-treated animals was calculated.

lipid level = conditions: prior art; cited from earlier work
[4] = prior art; cited from earlier work
[5] = rats, p.o., 4 hours after ligature

Row | Compound | LD50 at 336 h [1] [mg/kg] | IC50 (H^+ K^+ -ATP-ase) [µM] | LD50 at 336 h [2] [mg/kg] | ED50 (gastric-acid-secretion; [5]) [mg/kg] | ED50 ([3]; abs. ethanol) [mg/kg] | Ratio of acid-secretion inhibition and erosion inhibition ([3]; p.o.) | also measured
1 | CC(C)(C)NCC(O)CON=C1c2ccccc2-c2ccccc21 (stereo not drawn) [IPS-339] | – | – | – | – | – | – | beta-adrenergic blocking activity (beta-adrenergic): exhibit beta-adrenergic blocking activity
2 | CCN(CC)CCO/N=C1/C(=C/c2ccc(Cl)c(Cl)c2)CCCC1C (racemic) [Example 41, (R,S)-6-(E)-(3,4-Dichlorophenylmethylene)-2-methyl-1-(E)-[2-(diethylamino)-ethoxyimino]-cyclohexane] | > 1000 | 17 | 100 to 300 | – | – | – | –
3 | CCCCCC1CCCC(=C\c2ccc(F)cc2)/C1=N/OCCN1CCN(Cc2ccccc2)CC1 (racemic) [Example 31, (R,S)-6-(E)-(4-Fluorophenylmethylene)-2-pentyl-1-(E)-[2-(4-phenylmethyl-1-piperazinyl)-ethoxyimino]-cyclohexane] | > 1000 | > 30 | > 300 | 200 | 3.9 | 50 | –
4 | CCCC1CCCCC(=C\c2ccc(Cl)cc2)/C1=N/OCCN(CC)CC (racemic) [Example 40, (R,S)-7-(E)-(4-Chlorophenylmethylene)-2-propyl-1-(E)-[2-(diethylamino)-ethoxyimino]-cycloheptane] | > 1000 | 7 | 100 to 300 | 52.9 | 2.6 | 20 | –
5 | CC(CO/N=C1/C(=C/c2ccc(F)cc2)CCCC1C)CN(C)C (racemic) [Example 9, (R,S)-6-(E)-(4-Fluorophenylmethylene)-2-methyl-1-(E)-[3-(dimethylamino)-2-methylpropoxyimino]-cyclohexane] | 600 | > 30 | ~300 | 30 to 120 | 1.2 | 25-100 | –
6 | CN1CCN(CC(=O)N2c3ccccc3C(=O)Nc3cccnc32)CC1 [Pirenzepine, reference compound] | – | – | – | 7.9 | 18.6 | 0.4 | –
7 | CCCCCCC1CCCC(=C\c2ccccc2OC)/C1=N/OCCN(CC)CC (racemic) [Example 34, (R,S)-6-(E)-(2-Methoxyphenylmethylene)-2-hexyl-1-(E)-[2-(diethylamino)-ethoxyimino]-cyclohexane] | ~1000 | 5 | 88 | 103 | 1.4 | 73.4 | –
8 | COc1ccc2[nH]c([S+]([O-])Cc3ncc(C)c(OC)c3C)nc2c1 (stereo not drawn) [Omeprazole, reference compound] | – | – | – | 3.9 | 4.5 | 0.9 | –
9 | CN/C(=N/CCSCc1nc[nH]c1C)NC#N [Cimetidine, reference compound] | – | – | – | – | 100 to 200 | 0.3-0.6 | ED50 (gastric-acid-secretion; 4 h): 59.1 mg/kg
10 | Sucralfate [reference compound] | – | – | – | – | – | – | Ethanol erosion ED50 ([3]; p.o., abs. ethanol): 69 mg/kg
11 | CCCC1CCCCC(=C\c2ccc(Cl)cc2)/C1=N/OCC(O)CN1CCCC1 (racemic) [Example 44, (R,S)-2-Propyl-7-(E)-(4-chlorophenylmethylene)-1-(E)-[2-hydroxy-3-(N-pyrrolidinylpropoxyimino)]-cycloheptane] | > 1000 | 10 | 100 to 300 | 50 to 200 | 1.6 | – | –
12 | CCCCCCCC1CCCC(=C\c2ccc(F)cc2)/C1=N/OCCN(C)C (racemic) [Example 35, (R,S)-6-(E)-(4-Fluorophenylmethylene)-2-heptyl-1-(E)-[2-(dimethylamino)-ethoxyimino]-cyclohexane] | > 1000 | – | 100 to 300 | < 200 | 2.9 | ≤ 70 | –
13 | OC(CON=Cc1ccc(Cl)cc1)CN1CCN(c2ccccc2Cl)CC1 (stereo not drawn) [Peraclopon] | – | – | – | – | – | – | lipid level lowering (lipid level): lipid level lowering agent
14 | CC(=NOCC(O)CNC(C)(C)C)C1CC1 (stereo not drawn) [Falintolol] | – | – | – | – | – | – | beta-adrenergic blocking activity (beta-adrenergic): exhibit beta-adrenergic blocking activity
15 | COc1cccc(C=NOCC(O)CN2CCN(c3ccccc3OC)CC2)c1 (stereo not drawn) [Peradoxime] | – | – | – | – | – | – | hypotensive effect [4]: has a hypotensive effect
